Source: publication doi:10.1101/717207v1 (bioRxiv, 2019)

Legend:
[1] = Perturbation of DMPG membrane organization probed by DSC; assay type: physicochemical; conditions: DMPG MLVs 1 mg/mL in PBS, peptide-to-lipid ratio 1/50, 1°C/min, 0-50°C
[2] = Peptide binding to heparin studied by ITC; conditions: heparin into peptide, PBS, one site model, average of two experiments
[3] = Peptide binding to POPG LUVs studied by ITC; conditions: POPG LUVs into peptide, PBS, one site model, once or twice
[4] = Peptide secondary structure by ATR-FTIR in the absence or presence of heparin; assay type: physicochemical; conditions: for Percentage of structural elements: β-strand: ATR-FTIR amide I deconvolution, 1627 cm^-1; for Percentage of structural elements: Random coil / Percentage of structural elements: α-Helix / Percentage of structural elements: Turn: ATR-FTIR; for Percentage of structural elements: Random coil: 1643 cm^-1; for Percentage of structural elements: α-Helix: 1659 cm^-1; for Percentage of structural elements: Turn: 1679 cm^-1
[5] = +Hep (8.3 µM heparin, peptide per ITC stoichiometry)

Row | effect on DMPG bilayer organization (phase transitions) [1] | TΔS [2] [kcal/mol] | ΔH [2] [kcal/mol] | TΔS [3] [kcal/mol] | ΔH [3] [kcal/mol] | Percentage of structural elements: β-strand ([4]; peptide alone, 100 µM in PBS) [%] | Percentage of structural elements: Random coil [4, 5] [%] | Percentage of structural elements: Random coil ([4]; peptide alone, 100 µM in PBS) [%] | Percentage of structural elements: α-Helix [4, 5] [%] | Percentage of structural elements: α-Helix ([4]; peptide alone, 100 µM in PBS) [%] | Percentage of structural elements: Turn [4, 5] [%] | Percentage of structural elements: Turn ([4]; peptide alone, 100 µM in PBS) [%] | Sequence
1 | almost identical to that of aR6W3 | -80.5 | -91.1 | 6.2 | -0.74 |  |  |  |  |  |  |  | RRDWDWRRDWRR [Peptide R6DW3]
2 |  | -82.0 | -92.3 | 6.7 | -0.79 |  |  |  |  |  |  |  | RRRRRRRRW [Peptide R8W1-2]
3 |  | -71.5 | -81.7 | 6.2 | -0.72 |  |  |  |  |  |  |  | RRRRWRRRR [Peptide R8W1-1]
4 |  | -86.3 | -96.8 | 6.2 | -0.84 | 22 | 20 | 18 | 26 | 25 | 37 | 35 | RRRWRRWRR [aR7W2]
5 |  | -113.0 | -123.3 | 6.5 | -1.27 | 21 | 24 | 23 | 27 | 25 | 22 | 31 | RRWRRRRWW [nR6W3]
6 |  | -105.6 | -116.4 | 5.7 | -1.39 | 13 | 24 | 17 | 28 | 30 | 40 | 40 | RRWWRRWRR [aR6W3]
7 |  | -165.9 | -176.6 | 5.0 | -2.53 | 11 | 20 | 24 | 30 | 29 | 30 | 36 | RRWWRRWWR [aR5W4]
8 |  | -82.9 | -93.5 | 6.7 | -0.81 |  |  |  |  |  |  |  | RWRWRRRRR [nR7W2]
9 |  | -169.0 | -179.3 | 5.7 | -2.10 | 17 | 22 | 22 | 26 | 26 | 32 | 35 | RWWWWRRRR [nR5W4]

Row | Sequence | effect on DMPG bilayer organization (phase transitions) [1] | TΔS [2] [kcal/mol] | ΔH [2] [kcal/mol] | TΔS [3] [kcal/mol] | ΔH [3] [kcal/mol] | Percentage of structural elements: β-strand ([4]; peptide alone, 100 µM in PBS) [%] | Percentage of structural elements: Random coil [4, 5] [%] | Percentage of structural elements: Random coil ([4]; peptide alone, 100 µM in PBS) [%] | Percentage of structural elements: α-Helix [4, 5] [%] | Percentage of structural elements: α-Helix ([4]; peptide alone, 100 µM in PBS) [%] | Percentage of structural elements: Turn [4, 5] [%] | Percentage of structural elements: Turn ([4]; peptide alone, 100 µM in PBS) [%]
10 | RRRRRRRRR [Peptide R9] |  | -60.5 | -71.7 | 7.4 | -0.60 |  |  |  |  |  |  | 
